Source: patent publication US20060159732A1, “Antioxidant wound dressing materials” (priority 2003, published 2006)

Tests used:
[1] = system: Pseudomonas aeruginosa (ATCC 27853 and various PSI strains); assay: Zone of inhibition test (Procedure 2) on Pseudomonas aeruginosa; type: cell-based; settings: DSA plates, 37° C., every 24 hours over the test period (72 hours)
Procedure: (§1) Six 2 cm×2 cm squares of each sample are cut out in sterile conditions. On day one of the experiment, cultures of both Pseudomonas aeruginosa (ATCC 27853 and various PSI strains) and Staphylococcus aureus (provided by the Dept of Clinical Microbiology and Pathology) are incubated aerobically at 37° C. for 24 hours on Diagnostic Sensitivity Agar (DSA). After 24 hours test samples are each placed on a DSA plate and immediately wetted with 0.5 mls of a buffer solution. Three squares of sample are placed on plates inoculated with Pseudomonas aeruginosa and three are placed on plates inoculated with Staphylococcus aureus. The plates are then incubated at 37° C. for 24 hours. The zone of inhibited growth around the sample is then measured using calipers, and the test sample is placed on a new inoculated DSA plate. A swab test is carried out on the area beneath the sample to determine if the sample is bacteriostatic if not bactericidal by smearing the swab on a DSA plate and incubating it for 24 hours and then examining the growth.

Staphylococcus aureus = assay: Zone of inhibition test (Procedure 2) on Staphylococcus aureus; type: cell-based; settings: DSA plates, 37° C., every 24 hours over the test period (72 hours)
Procedure: as §1

[2] = DPPH test (Procedure 1), free radical / antioxidant activity; settings: positive control at 10^-4M; percentage reduction of absorbance at 524 nm relative to the control after 4 hours
Procedure: Preferably, the material according to the present invention has a free radical activity, that is to say an antioxidant activity, of at least about 15% in the diphenylpicrylhydrazyl (DPPH) test, measured as percentage reduction in absorbance at 524 nm after 4 hours of a 0.5% w/v dispersion of the polysaccharide in 10^−4M DPPH, as described further hereinbelow in Procedure 1. Preferably the percentage reduction in absorbance in the DPPH test (after correction for any absorbance by the dye) is at least about 25%, more preferably at least about 50%, and most preferably at least about 75%.
The ability of the wound dressing materials to react with and remove oxygen containing free radicals is assessed by the DPPH test described in WO94/13333, the entire content of which is expressly incorporated herein by reference. […]
Briefly, the wound dressing material under test (2.5 mg; 5 mg; & 25 mg sample sizes) was suspended in 2.5 ml of 0.1M pH 7.0 phosphate buffer. […] The samples were assessed by measurement of their light absorbance at 524 nm over 6 hours in comparison with a control, particular attention being paid to the figure after 4 hours. The percentage reduction of absorbance relative to the control after 4 hours gives the DPPH test value, with a reproducibility generally of ±5%. […]

SMILES	zone of inhibition [1]	zone of inhibition (Staphylococcus aureus)	DPPH test value [2]
O=[N+]([O-])[O-].[Ag+] [silver nitrate solution (0.5%), silver nitrate]	zones of inhibition were observed	zones of inhibition were observed	
O=C1O[C@H]([C@@H](O)CO)C(O)=C1O [positive control, Ascorbic acid]			80-90%
